Results as given in the NIST ThermoML archive (doi:10.1016/j.jct.2005.10.018).
± gives the expanded uncertainty stated by the source.

Conditions: 298.15 K; 101.33 kPa; Liquid; Vibrating tube method

**Q.** With `CCO` [ethanol] as the molecule, how does the mass density read?
**A.** Its mass density is 785.24 ± 0.16 kg/m3.

**Q.** With `C=C1CC[C@H]2C[C@@H]1C2(C)C` [(1S,5S)-6,6-dimethyl-2-methylenebicyclo[3.1.1]heptane] as the molecule, how does the mass density read?
**A.** The mass density was 866.84 ± 0.3 kg/m3.

**Q.** With `CC1=CC[C@H]2C[C@@H]1C2(C)C` [(S)-2-pinene] as the molecule, how does the mass density read?
**A.** Its mass density is 853.88 ± 0.3 kg/m3.

**Q.** Which mass density does the source give for `C=C(C)[C@H]1CC=C(C)CC1` [(R)-1-methyl-4-(1-methylethenyl)cyclohexene] here?
**A.** The mass density was 837.31 ± 0.85 kg/m3.
